Assay results reported in patent publication US6464978B1, “Vaccination and methods against multiple sclerosis resulting from pathogenic responses by specific T cell populations” (The Immune Response Corporation, priority 1989, dated 2002).
Values joined by “and” are separate entries in the source; they are usually repeats but may differ in a detail not shown here. Identical values can stand only once. “Also recorded” adds a separate entry of the source.

What was measured:
EAE [1] = test: Vaccination against EAE in the Lewis rat model, daily clinical scoring after MBP challenge; type: in vivo, Lewis rats; design: key to EAE clinical score, Days After Challenge 18 / EAE clinical score, Days After Challenge 10 / EAE clinical score, Days After Challenge 11 / EAE clinical score, Days After Challenge 12 / EAE clinical score, Days After Challenge 13 / EAE clinical score, Days After Challenge 14 / EAE clinical score, Days After Challenge 15 / EAE clinical score, Days After Challenge 16 / EAE clinical score, Days After Challenge 17 / EAE clinical score, Days After Challenge 19 / EAE clinical score, Days After Challenge 20: —: no signs; 1: limp tail; 2: hind leg weakness; 3: hind leg paralysis; conditions: for EAE clinical score, Days After Challenge 10: day 10; for EAE clinical score, Days After Challenge 11: day 11; for EAE clinical score, Days After Challenge 12: day 12; for EAE clinical score, Days After Challenge 13: day 13; for EAE clinical score, Days After Challenge 14: day 14; for EAE clinical score, Days After Challenge 15: day 15; for EAE clinical score, Days After Challenge 16: day 16; for EAE clinical score, Days After Challenge 17: day 17; for EAE clinical score, Days After Challenge 18: day 18
Procedure: Female Lewis rats, (Charles River Laboratories, Raleigh-Durham, N.C.) were immunized in each hind foot pad with 50 μg of guinea pig myelin basic protein emulsified in complete Freund's adjuvant. The first signs of disease were typically observed 9-11 days post-immunization. Disease severity is scored on a three point scale as follows: 1=limp tail; 2=hind leg weakness; 3=hind leg paralysis. Following a disease course of approximately four to six days, most rats spontaneously recovered and were refractory to subsequent EAE induction.
[…]. KLH-VDJ conjugate was administered at a dose equivalent to 10 μg of KLH per rat. Twenty-nine days later each rat was challenged with 50 μg of guinea pig myelin basic protein in complete Freund's adjuvant in the front footpads. Animals were monitored daily beginning at day 9 for clinical, signs of EAE and were scored as described above.
The preparation, administration and evaluation of these vaccines were conducted as described in Examples I through III with the following exceptions: 50 μg of the individual VDJ peptides were incorporated into vaccine formulations containing CFA; neither vaccinations in IFA nor vaccinations with peptides conjugated to KLH were conducted. Control animals were untreated prior to MBP challenge as in Example III or were vaccinated with emulsions of PBS and CFA to assess the protective effect of adjuvant alone. […]

EAE [2] = test: Histologic examination of the CNS of vaccinated, MBP-challenged rats; type: in vivo; conditions: Lewis rats, 50 μg peptide in CFA, MBP challenge
Text: Disease was characterized by severe paralysis and wasting, persisted for 4 to 6 days and spontaneously remitted.
Even sub-clinical signs of disease were abrogated.

[3] = Lewis rats, 50 μg peptide in CFA, MBP challenge
[4] = one rat per line, 50 μg JαTA39 peptide in CFA
[5] = one rat per line, 50 μg rat VDJ peptide in CFA
[6] = one rat per line, 5 μg VDJ or KLH-VDJ equivalent to 10 μg KLH, in IFA or CFA, hind footpads, MBP challenge 29 days later
[7] = one rat per line, 50 μg Vβ8 peptide in CFA

| Sequence | onset, severity and duration of EAE (EAE [1]; [3]) | protection against clinical EAE (animals protected) (EAE [1]; [3]) | EAE clinical score, Days After Challenge 10 (EAE [1]; [5]) | EAE clinical score, Days After Challenge 11 (EAE [1]; [5]) | EAE clinical score, Days After Challenge 12 (EAE [1]; [5]) | EAE clinical score, Days After Challenge 13 (EAE [1]; [5]) | EAE clinical score, Days After Challenge 14 (EAE [1]; [5]) | EAE clinical score, Days After Challenge 15 (EAE [1]; [5]) | EAE clinical score, Days After Challenge 16 (EAE [1]; [5]) | EAE clinical score, Days After Challenge 17 (EAE [1]; [5]) | EAE clinical score, Days After Challenge 18 (EAE [1]; [5]) | other results |
| --- | --- | --- | --- | --- | --- | --- | --- | --- | --- | --- | --- | --- |
| RFGAGTRLTVK [IR5] | in the third, disease onset was markedly delayed | Two of three animals were totally protected |  |  |  |  |  |  |  |  |  | effectiveness of vaccination compared with other peptides (EAE [1]; [3]): more effective than those observed with the mouse VDJ peptide or the Vβ8 peptide; EAE clinical score, Days After Challenge 10 (EAE [1]; [4]): —; EAE clinical score, Days After Challenge 11 (EAE [1]; [4]): —; EAE clinical score, Days After Challenge 12 (EAE [1]; [4]): —; EAE clinical score, Days After Challenge 13 (EAE [1]; [4]): —; EAE clinical score, Days After Challenge 14 (EAE [1]; [4]): —; EAE clinical score, Days After Challenge 15 (EAE [1]; [4]): 2 and — (2×); EAE clinical score, Days After Challenge 16 (EAE [1]; [4]): 1 and — (2×); EAE clinical score, Days After Challenge 17 (EAE [1]; [4]): 1 and — (2×); EAE clinical score, Days After Challenge 18 (EAE [1]; [4]): 1 and — (2×); EAE clinical score, Days After Challenge 19 (EAE [1]; day 19, one rat per line, 50 μg JαTA39 peptide in CFA): 1 and — (2×); EAE clinical score, Days After Challenge 20 (EAE [1]; day 20, one rat per line, 50 μg JαTA39 peptide in CFA): —; histologic lesions / T cell infiltration of the CNS (EAE [2]): the two animals which were completely protected showed no histologic evidence of T cell infiltration of the CNS |
| A S S D - S S N T E (ASSDSSNTE) [IR9b] |  | complete protection in all four animals | — | — | — | — | — | — | — | — | — | histologic lesions / T cell infiltration of the CNS (EAE [2]): no histologic lesions characteristic of disease were found in any of the four animals |
| SGDAGGGYE [VDJ (CFA), free VDJ peptide in PBS emulsified with complete Freund's adjuvant] |  |  |  |  |  |  |  |  |  |  |  | EAE clinical score, Days After Challenge 10 (EAE [1]; [6]): —; EAE clinical score, Days After Challenge 11 (EAE [1]; [6]): —; EAE clinical score, Days After Challenge 12 (EAE [1]; [6]): —; EAE clinical score, Days After Challenge 13 (EAE [1]; [6]): 1 and — (2×); EAE clinical score, Days After Challenge 14 (EAE [1]; [6]): 3 and 1 and —; EAE clinical score, Days After Challenge 15 (EAE [1]; [6]): 3 and 1 and —; EAE clinical score, Days After Challenge 16 (EAE [1]; [6]): 3 and 1 and —; EAE clinical score, Days After Challenge 17 (EAE [1]; [6]): 2 and — (2×); EAE clinical score, Days After Challenge 18 (EAE [1]; [6]): — |
| C A S S D - S S N T E V F F G K (CASSDSSNTEVFFGK) [IR1] | delays in onset were observed in some; also recorded: others showed both delayed onset as well as decreased severity and/or duration of disease |  | — | — | — | 2 and — and 1 | 1 | — and 3 and 1 | — (2×) and 1 | — | — |  |
| C A S S D - S G N - V L Y F G E G S R (CASSDSGNVLYFGEGSR) [IR3] | delays in onset were observed in some; also recorded: others showed both delayed onset as well as decreased severity and/or duration of disease |  | 1 and — (2×) | 3 and — (2×) | 3 and 2 and — | 3 (2×) and — | 2 and 3 and — | — | — | — | — |  |
| DMGHGLRLIHYSYDVNSTEK [IR7] | Delayed onset as well as decreased severity and duration of disease was observed in one animal | One animal was completely protected |  |  |  |  |  |  |  |  |  | EAE clinical score, Days After Challenge 10 (EAE [1]; [7]): —; EAE clinical score, Days After Challenge 11 (EAE [1]; [7]): —; EAE clinical score, Days After Challenge 12 (EAE [1]; [7]): 1 and — (2×); EAE clinical score, Days After Challenge 13 (EAE [1]; [7]): 2 and — (2×); EAE clinical score, Days After Challenge 14 (EAE [1]; [7]): 3 and 1 and —; EAE clinical score, Days After Challenge 15 (EAE [1]; [7]): 3 and 1 and —; EAE clinical score, Days After Challenge 16 (EAE [1]; [7]): 3 and — (2×); EAE clinical score, Days After Challenge 17 (EAE [1]; [7]): —; EAE clinical score, Days After Challenge 18 (EAE [1]; [7]): — |
| SGDAGGGYE [VDJ (IFA), free VDJ peptide in PBS emulsified with incomplete Freund's adjuvant] |  |  |  |  |  |  |  |  |  |  |  | EAE clinical score, Days After Challenge 10 (EAE [1]; [6]): —; EAE clinical score, Days After Challenge 11 (EAE [1]; [6]): —; EAE clinical score, Days After Challenge 12 (EAE [1]; [6]): 2 and 1 and —; EAE clinical score, Days After Challenge 13 (EAE [1]; [6]): 3; EAE clinical score, Days After Challenge 14 (EAE [1]; [6]): 3; EAE clinical score, Days After Challenge 15 (EAE [1]; [6]): 3; EAE clinical score, Days After Challenge 16 (EAE [1]; [6]): — and 2 (2×); EAE clinical score, Days After Challenge 17 (EAE [1]; [6]): —; EAE clinical score, Days After Challenge 18 (EAE [1]; [6]): — |
| C A S S D - S G N T E V F F G K (CASSDSGNTEVFFGK) [IR2] | delays in onset were observed in some; also recorded: others showed both delayed onset as well as decreased severity and/or duration of disease |  | — | — | 1 and — (2×) | 3 and — (2×) | 3 and 2 and 1 | 3 and 2 and — | — (2×) and 3 | — (2×) and 3 | — |  |
